{"source": "ChEMBL document CHEMBL2346648", "about": "“A series of thiazole derivatives bearing thiazolidin-4-one as non-competitive ADAMTS-5 (aggrecanase-2) inhibitors” (Bioorg Med Chem Lett, 2013)", "key": {"[1]": {"molecular_target": "72 kDa type IV collagenase (Homo sapiens, UniProt P08253)", "sequence (P08253 whole entry)": "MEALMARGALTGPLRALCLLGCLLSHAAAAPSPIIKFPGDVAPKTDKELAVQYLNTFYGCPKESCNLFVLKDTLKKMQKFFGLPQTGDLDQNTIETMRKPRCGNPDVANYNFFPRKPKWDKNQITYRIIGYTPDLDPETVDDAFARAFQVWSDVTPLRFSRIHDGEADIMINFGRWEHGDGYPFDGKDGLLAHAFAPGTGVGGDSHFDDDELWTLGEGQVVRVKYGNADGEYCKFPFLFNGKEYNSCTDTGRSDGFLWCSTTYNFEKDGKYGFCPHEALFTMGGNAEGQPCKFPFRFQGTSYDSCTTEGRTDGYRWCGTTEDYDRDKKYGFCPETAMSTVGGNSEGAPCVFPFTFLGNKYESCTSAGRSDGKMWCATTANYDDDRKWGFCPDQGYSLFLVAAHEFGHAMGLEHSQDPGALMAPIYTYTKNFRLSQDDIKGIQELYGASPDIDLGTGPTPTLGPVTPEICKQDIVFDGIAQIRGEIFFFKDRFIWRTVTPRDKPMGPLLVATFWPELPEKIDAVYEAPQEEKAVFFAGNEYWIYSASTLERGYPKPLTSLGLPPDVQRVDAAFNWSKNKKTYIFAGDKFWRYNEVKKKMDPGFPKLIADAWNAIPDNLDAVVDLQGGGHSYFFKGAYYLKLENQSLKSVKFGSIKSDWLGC", "assay": "Inhibition of MMP2 (unknown origin) by FRET method"}, "[2]": {"molecular_target": "T1, A disintegrin and metalloproteinase with thrombospondin motifs 4 (Homo sapiens, UniProt O75173)", "T1 sequence (O75173 whole entry)": "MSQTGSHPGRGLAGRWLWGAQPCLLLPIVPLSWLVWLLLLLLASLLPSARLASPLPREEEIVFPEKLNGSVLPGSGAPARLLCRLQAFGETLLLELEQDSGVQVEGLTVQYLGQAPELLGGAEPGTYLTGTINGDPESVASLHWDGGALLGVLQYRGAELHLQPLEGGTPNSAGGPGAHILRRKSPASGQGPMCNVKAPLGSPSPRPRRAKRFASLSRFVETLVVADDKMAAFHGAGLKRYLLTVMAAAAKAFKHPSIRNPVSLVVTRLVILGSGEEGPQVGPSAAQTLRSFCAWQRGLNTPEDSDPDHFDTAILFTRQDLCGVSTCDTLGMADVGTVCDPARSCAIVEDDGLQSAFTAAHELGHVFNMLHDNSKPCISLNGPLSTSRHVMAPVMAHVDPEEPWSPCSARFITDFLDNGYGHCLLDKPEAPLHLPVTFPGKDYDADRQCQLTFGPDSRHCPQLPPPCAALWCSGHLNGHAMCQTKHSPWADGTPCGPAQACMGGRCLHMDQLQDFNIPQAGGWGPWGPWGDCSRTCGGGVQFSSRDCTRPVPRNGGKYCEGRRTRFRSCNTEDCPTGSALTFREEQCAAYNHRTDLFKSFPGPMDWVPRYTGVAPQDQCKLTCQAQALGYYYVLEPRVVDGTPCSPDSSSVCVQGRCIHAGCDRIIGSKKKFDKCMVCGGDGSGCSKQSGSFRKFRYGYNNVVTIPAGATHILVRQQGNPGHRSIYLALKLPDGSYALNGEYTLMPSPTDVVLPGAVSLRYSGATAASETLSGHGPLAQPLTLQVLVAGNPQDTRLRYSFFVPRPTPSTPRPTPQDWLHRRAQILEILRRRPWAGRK", "assay": "Inhibition of ADAMTS-4 (unknown origin) by FRET method"}}}
{"smiles": "O=C(O)CCc1sc(/C=C2\\NC(=O)CS2)nc1-c1ccccn1", "values": [{"measurement": "IC50", "setting": "[1]", "result": "> 30", "unit": "µM"}, {"measurement": "IC50", "setting": "[2]", "result": 23, "unit": "µM"}]}
